Legend:
[1] = biological target: T1, SNAP protein tags (Homo sapiens, UniProt P16455, A127T/A154D/C150Q/C62A/E30R/G131K/G132T/G153L/K125A/K32I/L33F/M134L/N157G/Q115S/Q116H/R128A/R135S/S151G/S152D/S159E); assay: Fluorescence activation of probe after incubation with corresponding protein tag (SNAP); format: biochemical; settings: probe 5 μM, protein tag 10 μM, 37° C., 1 hr
T1 sequence (P16455 1-182 E30R/K32I/L33F/C62A/Q115S/Q116H/K125A/A127T/R128A/G131K/G132T/M134L/R135S/C150Q/S151G/S152D/G153L/A154D/N157G/S159E): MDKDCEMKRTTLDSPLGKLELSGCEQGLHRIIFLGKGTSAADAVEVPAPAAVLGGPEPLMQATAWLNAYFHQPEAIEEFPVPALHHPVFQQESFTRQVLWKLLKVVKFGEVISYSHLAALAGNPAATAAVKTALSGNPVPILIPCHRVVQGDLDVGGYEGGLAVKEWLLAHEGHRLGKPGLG
Experimental: (§1) Probes were mixed with corresponding protein tags to obtain mixed samples, in which the final probe concentration was 5 μM, and the final protein tag concentration was 10 μM. The mixed samples were incubated 37° C. for 1 hr, fluorescence spectrophotometer was used to detect the change in fluorescence intensity, and the results are shown in Table 1.
(§2) From the quantum yield of probe bound to protein tag, after reacting with the protein tags, the probes of the Examples could be detected to have significant signal enhancement in corresponding excitation transmission channels, the fluorescence activation multiple reached several hundreds to a thousand or more, and the brightness was high, which illustrates that after the probes of the Examples are bound to the protein tags, fluorescence of the probes can be activated, and the probes have good fluorescent molecular switching properties. In contrast, though the fluorescence of the reference probes could also be activated, the quantum yield of activated fluorescence was very low, and the brightness was very poor. In particular, in view of comparison results between probe 98 and reference probe 99, probe 101 and reference probe 102, probe 103 and reference probe 104, probe 105 and reference probe 106, probe 107 and reference probe 108, probe 109 and reference probe 110, probe 111 and reference probe 112, probe 114 and reference probe 115, probe 117 and reference probe 118, probe 120 and reference probe 121 in Table 1, for the same fluorescent dye, when the ligand is connected to the electron donor part of the fluorescent dye, the fluorescence activation brightness of the probe is much higher than the reference probe in which ligand is connected to the electron acceptor part of the fluorescent dye.

[2] = Viscosity responsiveness: fluorescence emission spectra of probes in glycerol and methanol; format: physicochemical; settings: for Emission wavelength: excited at maximum excitation wavelength of each probe; for Fluorescence ratio in glycerol to methanol: probe 1×10^−5 M
Experimental: Probes 1 to 98, 101, 103, 105, 107, 109, 111, 114, 117, and 120, and the reference probes 99, 100, 102, 104, 106, 108, 110, 112, 113, 115, 116, 118, 119, 121, BG-CCVJ and BG-Gly-CCVJ were dissolved in dimethyl sulfoxide, respectively, to prepare mother liquors having a concentration of 1×10^−2 M, to each of which glycerol and methanol were added and uniformly mixed, to prepare solutions finally having a concentration of 1×10^−5 M. Depending on the probes, fluorescence emission spectra of the probes were detected successively with the maximum excitation wavelength of each probe under the same conditions, and the results were shown in Table 1.
That is, these probes are sensitive to viscosity changes and have viscosity responsiveness.

[3] = Fluorescence of free probe prior to binding to a protein tag; format: physicochemical
Experimental: as §1, §2

| Fluorescence activation multiple [1] | Quantum yield of probe bound to protein tag [1] | Emission wavelength [2] | Fluorescence ratio in glycerol to methanol [2] | Quantum yield of free probe [3] | Structure (SMILES) |
| --- | --- | --- | --- | --- | --- |
| 989 | 0.37 | 610 nm | 1183 | <0.001 | CN(CCOC(=O)NCc1ccc(COc2cc(Cl)nc(N)n2)cc1)c1ccc(/C=C(\C#N)c2nc3ccccc3s2)cc1 [probe 6] |
| 431 | 0.39 | 482 nm | 655 | <0.001 | CC(C)(C)OC(=O)/C(C#N)=C/c1ccc(N(CCO)CCOC(=O)NCc2ccc(COc3nc(N)nc4[nH]cnc34)cc2)cc1 [probe 10] |
| 270 | 0.36 | 481 nm | 422 | 0.0013 | CC(C)(C)OC(=O)/C(C#N)=C/c1ccc(N(CCOC(=O)NCCCS(=O)(=O)O)CCOC(=O)NCc2ccc(COc3nc(N)nc4[nH]cnc34)cc2)cc1 [probe 11] |
| 351 | 0.41 | 482 nm | 405 | 0.0012 | COCCOCCOCCOCCOCCN(CCOC(=O)NCc1ccc(COc2nc(N)nc3[nH]cnc23)cc1)c1ccc(/C=C(\C#N)C(=O)OC(C)(C)C)cc1 [probe 12] |
| 315 | 0.29 | 483 nm | 391 | <0.001 | CN(CCC(=O)NCc1ccc(COc2nc(N)nc3[nH]cnc23)cc1)c1ccc(/C=C(\C#N)C(=O)OC(C)(C)C)cc1 [probe 13] |
| 771 | 0.18 | 531 nm | 560 | <0.001 | CN1C(=O)/C(=C/c2ccc(N(C)CCOC(=O)NCc3ccc(COc4nc(N)nc5[nH]cnc45)cc3)cc2)N=C1c1ccccc1 [probe 14] |
| 359 | 0.21 | 580 nm | 311 | <0.001 | CN1C(=O)/C(=C/c2ccc(N(C)CCOC(=O)NCc3ccc(COc4cc(Cl)nc(N)n4)cc3)cc2)N=C1/C=C/c1ccccc1 [probe 16] |
| 265 | 0.45 | 535 nm | 301 | 0.0017 | CN(CCOC(=O)NCc1ccc(COc2nc(N)nc3[nH]cnc23)cc1)c1ccc(C2=C(C#N)C(=C(C#N)C#N)OC2(C)C)cc1 [probe 18] |
| 361 | 0.45 | 535 nm | 299 | 0.0012 | CN(CCOC(=O)NCc1ccc(COc2cc(Cl)nc(N)n2)cc1)c1ccc(C2=C(C#N)C(=C(C#N)C#N)OC2(C)C)cc1 [probe 19] |
| 610 | 0.36 | 590 nm | 1821 | <0.001 | CN(CCOC(=O)NCc1ccc(COc2nc(N)nc3[nH]cnc23)cc1)c1cc2sc(/C=C(\C#N)c3nc4ccccc4o3)cc2s1 [probe 22] |
| 712 | 0.42 | 610 nm | 1235 | <0.001 | CN(CCOC(=O)NCc1ccc(COc2nc(N)nc3[nH]cnc23)cc1)c1cc2sc(/C=C(\C#N)c3nc4ccccc4s3)cc2s1 [probe 23] |
| 590 | 0.48 | 555 nm | 1681 | <0.001 | CN(CCOC(=O)NCc1ccc(COc2cc(Cl)nc(N)n2)cc1)c1cc2sc(/C=C(\C#N)C(=O)OC(C)(C)C)cc2s1 [probe 24] |
| 670 | 0.36 | 590 nm | 1621 | <0.001 | CN(CCOC(=O)NCc1ccc(COc2cc(Cl)nc(N)n2)cc1)c1cc2sc(/C=C(\C#N)c3nc4ccccc4o3)cc2s1 [probe 25] |
| 910 | 0.42 | 610 nm | 1123 | <0.001 | CN(CCOC(=O)NCc1ccc(COc2cc(Cl)nc(N)n2)cc1)c1cc2sc(/C=C(\C#N)c3nc4ccccc4s3)cc2s1 [probe 26] |
| 421 | 0.41 | 607 nm | 1135 | <0.001 | CN(CCOC(=O)NCc1ccc(COc2nc(N)nc3[nH]cnc23)cc1)c1ccc2cc(/C=C(\C#N)c3nc4ccccc4o3)sc2c1 [probe 31] |
| 638 | 0.46 | 609 nm | 997 | <0.001 | CN(CCOC(=O)NCc1ccc(COc2nc(N)nc3[nH]cnc23)cc1)c1ccc2cc(/C=C(\C#N)c3nc4ccccc4s3)sc2c1 [probe 32] |
| 957 | 0.55 | 570 nm | 1781 | <0.001 | CN(CCOC(=O)NCc1ccc(COc2cc(Cl)nc(N)n2)cc1)c1ccc2cc(/C=C(\C#N)C(=O)OC(C)(C)C)sc2c1 [probe 33] |
| 488 | 0.50 | 570 nm | 1258 | 0.001 | CC(C)(C)OC(=O)/C(C#N)=C/c1cc2ccc(N(CCC#N)CCOC(=O)NCc3ccc(COc4nc(N)nc5[nH]cnc45)cc3)cc2s1 [probe 36] |
| 469 | 0.56 | 570 nm | 1135 | 0.0012 | CC(C)(C)OC(=O)/C(C#N)=C/c1cc2ccc(N(CCO)CCOC(=O)NCc3ccc(COc4nc(N)nc5[nH]cnc45)cc3)cc2s1 [probe 37] |
| 335 | 0.55 | 570 nm | 892 | 0.0016 | CC(C)(C)OC(=O)/C(C#N)=C/c1cc2ccc(N(CCOC(=O)NCCCS(=O)(=O)O)CCOC(=O)NCc3ccc(COc4nc(N)nc5[nH]cnc45)cc3)cc2s1 [probe 39] |
| 421 | 0.41 | 570 nm | 759 | 0.001 | CN(CCOC(=O)NCc1ccc(COc2nc(N)nc3[nH]cnc23)cc1)c1ccc2cc(/C=C(\C#N)C(=O)OC(C)(C)C)sc2c1 [probe 40] |
| 212 | 0.31 | 575 nm | 101 | 0.0015 | CC1=N/C(=C/c2cc3ccc(N(C)CCOC(=O)NCc4ccc(COc5nc(N)nc6[nH]cnc56)cc4)cc3s2)C(=O)N1C [probe 41] |
| 298 | 0.38 | 600 nm | 178 | 0.0013 | CN1C(=O)/C(=C\c2cc3ccc(N(C)CCOC(=O)NCc4ccc(COc5nc(N)nc6[nH]cnc56)cc4)cc3s2)N=C1c1ccccc1 [probe 42] |
